Like-named read-outs stand apart in the source and are kept apart here.
Key:
LmxCLK1 = molecular target: T1, LmxCLK1 (Leishmania mexicana, UniProt E9AMP2); assay: biochemical; format: binding
T1 sequence (E9AMP2 1-422): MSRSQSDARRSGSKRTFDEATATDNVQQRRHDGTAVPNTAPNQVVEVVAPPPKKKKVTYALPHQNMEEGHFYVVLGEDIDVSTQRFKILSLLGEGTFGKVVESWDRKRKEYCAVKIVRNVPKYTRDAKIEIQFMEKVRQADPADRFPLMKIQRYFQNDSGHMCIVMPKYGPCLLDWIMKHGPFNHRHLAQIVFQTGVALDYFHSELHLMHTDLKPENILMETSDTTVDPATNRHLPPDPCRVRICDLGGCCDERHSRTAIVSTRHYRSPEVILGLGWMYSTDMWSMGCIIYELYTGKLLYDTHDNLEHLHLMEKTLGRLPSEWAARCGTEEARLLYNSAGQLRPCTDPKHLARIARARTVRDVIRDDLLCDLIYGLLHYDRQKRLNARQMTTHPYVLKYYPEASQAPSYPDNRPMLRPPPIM

NLuc::LmxCLK1 = NLuc::LmxCLK1 (Leishmania mexicana, UniProt E9AMP2); assay: cell-based; format: cell-based; details: for Target occupancy Run 1 / Target occupancy Run 2 / Target occupancy Average: 10 µM compound, tracer SV366, promastigotes; for Target occupancy Average: mean of two experiments
Procedure: All compounds were tested at a fixed concentration of 10 µM to enable direct comparison of their target occupancy in live cells.
Serially diluted probes (5 µL) were added to 85 µL of cells in culture media or 85 µL of purified protein. Final well volumes were adjusted to 100 µL with sterile Opti-MEM™ I Reduced Serum Medium (Thermo-Scientific) – for wells containing cells; or Kinase Buffer - for wells containing purified protein. For tracer displacement assays, samples were prepared as above, but final volume was brought to 100 µL by addition of vehicle or serially-diluted test compounds. Final DMSO concentration in these assays was 1%. […] Light emissions at 460+10 nm (BRET donor) and at 610+20 nm (BRET acceptor) were sequentially recorded (integration time = 0.5 s, gain = 3600) using a luminometer (BMG LABTECH Clariostar or Biotek Synergy HT). BRET values are reported in milli-BRET (mBRET) units (mBU), obtained by dividing the acceptor luminescence by the donor luminescence and multiplying the result by a factor of 1,000. BRET values were converted to blank-corrected probe occupancies (%) according to equation [1]: (1) Probeoccupancy(%)=X−Z/Y−Z×100 where X = mBRET value in the presence of the test compound and the probe, Y = mBRET value in the presence of probe only, and Z = mBRET value in the absence of probe and test compound. […]

[1] = DSF, 10 µM compound, 2 µM LmxCLK1, Run 1
[2] = DSF, 10 µM compound, 2 µM LmxCLK1, Run 2
[3] = DSF, 10 µM compound, 2 µM LmxCLK1, mean of two runs
[4] = DSF, 10 µM compound, 2 µM LmxCLK1, Run 1, read-out: ΔTm Run 1
[5] = DSF, 10 µM compound, 2 µM LmxCLK1, Run 2, read-out: ΔTm Run 2
[6] = DSF, 10 µM compound, 2 µM LmxCLK1, mean of two runs, read-out: ΔTm Average
[7] = read-out: Target occupancy Average
[8] = read-out: Target occupancy Run 1
[9] = read-out: Target occupancy Run 2

| Compound | ΔTm Run 1 (LmxCLK1; [1]) [°C] | ΔTm Run 2 (LmxCLK1; [2]) [°C] | ΔTm Average (LmxCLK1; [3]) [°C] | Target occupancy Run 1 (NLuc::LmxCLK1) [%] | Target occupancy Run 2 (NLuc::LmxCLK1) [%] | Target occupancy Average (NLuc::LmxCLK1) [%] | ΔTm at 10 µM (LmxCLK1; [4]) [°C] | ΔTm at 10 µM (LmxCLK1; [5]) [°C] | ΔTm at 10 µM (LmxCLK1; [6]) [°C] | receptor occupancy at 10 µM (NLuc::LmxCLK1; [7]) [%] | receptor occupancy at 10 µM (NLuc::LmxCLK1; [8]) [%] | receptor occupancy at 10 µM (NLuc::LmxCLK1; [9]) [%] | ΔTm Average (LmxCLK1) | ΔTm Run 1 (LmxCLK1) | ΔTm Run 2 (LmxCLK1) |
| --- | --- | --- | --- | --- | --- | --- | --- | --- | --- | --- | --- | --- | --- | --- | --- |
| CNC(=O)c1ccccc1Nc1nc(Nc2ccc(N3CCOCC3)cc2OC)ncc1Cl [TAE226 (NVP-TAE226)] | 0.2 | -0.1 | 0.0 | -26.7 | -0.7 | -13.7 |  |  |  |  |  |  |  |  |  |
| Cn1cc(C2=C(c3ccc(Cl)cc3Cl)C(=O)NC2=O)c2ccccc21 [SB216763] |  |  |  |  |  |  | 0.1 | -0.1 | 0 | -4.4 | 0.9 | -9.6 |  |  |  |
| COC[C@H]1OC(=O)c2coc3c2[C@@]1(C)C1=C(C3=O)[C@@H]2CCC(=O)[C@@]2(C)C[C@H]1OC(C)=O [Wortmannin] |  |  |  |  |  |  | 0 | -0.3 | -0.2 | -3.6 | -2.4 | -4.8 |  |  |  |
| CC(C)(C)n1nc(-c2ccc(Cl)cc2)c2c(N)ncnc21 [PP2] |  |  |  | -3.1 | 0.5 | -1.3 |  |  |  |  |  |  | 0 °C | 0.2 °C | -0.2 |
| c1cncc(CN2CCC(n3ncc4c(N5CCOCC5)nc(-c5ccc6[nH]ccc6c5)nc43)CC2)c1 [WAY-600] | 0.0 | -0.4 | -0.2 | 4.0 | -10.8 | -3.4 |  |  |  |  |  |  |  |  |  |
| O=C(Nc1nc2cccc(-c3ccc(CN4CCS(=O)(=O)CC4)cc3)n2n1)C1CC1 [Filgotinib (GLPG0634)] |  |  |  |  |  |  | 0.2 | -0.4 | -0.1 | -15.3 | -9.1 | -21.6 |  |  |  |
| Cc1[nH]c(/C=C2\C(=O)Nc3ccc(S(=O)(=O)N(C)c4cccc(Cl)c4)cc32)c(C)c1C(=O)N1CCN(C)CC1 [SU11274] |  |  |  |  |  |  | -0.1 | -0.2 | -0.2 | -6.7 | -7.3 | -6 |  |  |  |
| N#Cc1c(O)c2c(-c3ccc(-c4ccccc4O)cc3)csc2[nH]c1=O [A-769662] |  |  |  | 1.2 | -1.3 | 0.0 |  |  |  |  |  |  | -0.1 | -0.1 | 0 °C |
| Cc1ccc(S(=O)(=O)/C=C/C#N)cc1 [BAY 11-7082] | -0.4 | -0.2 | -0.3 | -17.1 | -14.7 | -15.9 |  |  |  |  |  |  |  |  |  |
| CC(C)n1nc(-c2ccc3oc(N)nc3c2)c2c(N)ncnc21 [INK 128 (MLN0128)] | 0.6 | 0.5 | 0.5 | -0.8 | 0.1 | -0.3 |  |  |  |  |  |  |  |  |  |
| O=C(Nc1ccc(OC(F)(F)F)cc1)c1sccc1NCc1ccnc2ccccc12 [OSI-930] |  |  |  |  |  |  | 0.4 | 0 | 0.2 | 0.1 | -0.4 | 0.6 |  |  |  |
| Cn1cnc(N)c2ncnc1-2 [3-Methyladenine] |  |  |  |  |  |  | 0.2 | 0 | 0.1 | -2.2 | 2.8 | -7.1 |  |  |  |
| COc1cc2ncnc(Nc3ccc(F)c(Cl)c3)c2cc1NC(=O)/C=C/CN1CCCCC1 [Dacomitinib (PF299804)] | -0.4 | -0.5 | -0.4 | 1.4 | -14.2 | -6.4 |  |  |  |  |  |  |  |  |  |
